Results published in patent US20220087960A1, “Oral Pharmaceutical Immediate Release Composition” (Aardvark Therapeutics Inc., priority 2020, published 2022).
“Also recorded” adds a separate entry of the source.

What was measured:
[1] = test system: male C57BL/6N DIO mice; test: 56-day BID treatment, food consumption and body weight in DIO mice (Example 6, second in vivo study); design: species or system mouse
Description: In a second in vivo study, 45 male C57BL/6N DIO mice (purchased from Envigo at 18 weeks of age, fed with high-fat diet) were divided into three groups (15 in each group), which were orally administered vehicle (distilled water), 26.8 mg/kg of DB, or 23.1 mg/kg of DA respectively, twice daily (BID), with a 56-day treatment period to compare the efficacy of DB versus DA in food intake reduction and body weight control. Briefly, once weekly, the food weight for each cage was recorded at 0 hour and then 24 hours later, permitting calculation of food consumption for that 24-hour interval. In addition, starting from Day 0, the mice were weighed three times weekly (every 2-3 days).

[2] = test system: diet-induced obesity (DIO) mouse model; test: 56-day DIO mouse weight loss study comparing DA and DB (Example 3); assay type: in vivo; conditions: DIO mice
Excerpt: The 56-day study determined the behavioral effects of bitter taste receptor agonists denatonium acetate (DA) compared to denatonium benzoate (DB) in a diet-induced obesity (DIO) mouse model. […] The study duration was a 3-5 day acclimation period+[…] study period and 2-3 day testing period after study. […] The mice were C57BL/6NTad mice at least 12 weeks in age and 15 mice per group (low dose DA, higher dose DA, high dose DB and control). […] Metabolic biomarkers (blood glucose, blood insulin, blood HbA1c) were measured at the beginning and end of the study. The DA, DB or distilled water control was administered per ostium gavage (PO) at a volume of 5 mL/kg body weight.

[3] = test system: Sprague Dawley rats; test: in vivo; conditions: rat, po
Description: (§1) The drugs were administered to Sprague Dawley rats with a 14-day observational period. Twenty-four Male Sprague Dawley (SD) rats and 24 female SD rats were purchased from Envigo at 8-10 weeks of age. The DA group had four dose levels (120, 360, 1000, and 2000 mg/kg, single administration by oral gavage), 3 rats per sex, 6 animals in total per dose level; and the DB group: four dose levels (120, 360, 1000, and 2000 mg/kg, single administration by oral gavage), 3 rats per sex, 6 animals in total per dose level. The estimated median lethal dose (LD50) was determined by a nonlinear regression [model: Y=100/(1+10^(LogEC50-X)), Hill slope=1.0) to calculate LD50.

[4] = in vivo; conditions: both, Sprague Dawley, rat, po
Description: as §1

[5] = test system: male SD rats; test: Single oral dose food intake study, 24-hour observational period (Example 6, first in vivo study); design: species or system rat
Description: This example compares efficacy of DA versus DB in food inhibition and body weight control. As a background, according to Avau et al., Sci. Rep. […] In our first in vivo study, 45 male SD rats (purchased from Envigo at 8-10 weeks of age) were divided into three groups (15 in each group), which were administered a single oral dose of vehicle (distilled water), 26.8 mg/kg of DB, or 23.1 mg/kg of DA respectively, with a 24-hour observational period, to compare the efficacy of DB versus DA in reducing food intake. Table 4. Mean cumulative food intake during 24-h observational period

[6] = test system: male Sprague Dawley rats; test: 24 hour food intake study in rats comparing DA to DB (Example 4); assay type: in vivo, rat; conditions: gavage, DA high dose 23.1 mg/kg
Description: This example provides a 24 hour study comparing DA to DB is rats (male Sprague Dawley, Charles River) over a 24 hour period. The […] of 15 rats each were vehicle controlled distilled water gavage QID, DB at a dose of 26.8 mg/kg gavage QID, DA low dose 2.9 mg/kg gavage QD, and DA high dose 23.1 mg/kg gavage QD. Food intake at 2 hr, 4 hr, 6 hr, 8 hr and 24 hr after administration was measured.

CC(=O)[O-].CC[N+](CC)(CC(=O)Nc1c(C)cccc1C)Cc1ccccc1 [DA, Denatonium acetate]
body weight gain as compared to vehicle treatment ([1]; DIO mice on high-fat diet, 26.8 mg/kg DB or 23.1 mg/kg DA BID): less body weight gain as compared to vehicle treatment | Mean food consumption per animal for 24-h interval, Day 0 ([1]; DIO mice, BID oral (DA 23.1 mg/kg, DB 26.8 mg/kg), Day 0): 2.2 gram | Mean food consumption per animal for 24-h interval, Day 7 ([1]; DIO mice, BID oral (DA 23.1 mg/kg, DB 26.8 mg/kg), Day 7): 1.7 gram | Mean food consumption per animal for 24-h interval, Day 14 ([1]; DIO mice, BID oral (DA 23.1 mg/kg, DB 26.8 mg/kg), Day 14): 1.9 gram | Mean food consumption per animal for 24-h interval, Day 21 ([1]; DIO mice, BID oral (DA 23.1 mg/kg, DB 26.8 mg/kg), Day 21): 2.3 gram | Mean food consumption per animal for 24-h interval, Day 28 ([1]; DIO mice, BID oral (DA 23.1 mg/kg, DB 26.8 mg/kg), Day 28): 2.0 gram | Mean food consumption per animal for 24-h interval, Day 35 ([1]; DIO mice, BID oral (DA 23.1 mg/kg, DB 26.8 mg/kg), Day 35): 2.4 gram | Mean food consumption per animal for 24-h interval, Day 42 ([1]; DIO mice, BID oral (DA 23.1 mg/kg, DB 26.8 mg/kg), Day 42): 2.0 gram | Mean food consumption per animal for 24-h interval, Day 49 ([1]; DIO mice, BID oral (DA 23.1 mg/kg, DB 26.8 mg/kg), Day 49): 2.3 gram | Mean food consumption per animal for 24-h interval, Day 56 ([1]; DIO mice, BID oral (DA 23.1 mg/kg, DB 26.8 mg/kg), Day 56): 1.7 gram | Mean normalized body weight (% of baseline), study day 0 ([1]; DIO mice, BID oral (DA 23.1 mg/kg, DB 26.8 mg/kg), day 0): 100.0 % of baseline | Mean normalized body weight (% of baseline), study day 4 ([1]; DIO mice, BID oral (DA 23.1 mg/kg, DB 26.8 mg/kg), day 4): 101.1 % of baseline | Mean normalized body weight (% of baseline), study day 7 ([1]; DIO mice, BID oral (DA 23.1 mg/kg, DB 26.8 mg/kg), day 7): 100.6 % of baseline | Mean normalized body weight (% of baseline), study day 9 ([1]; DIO mice, BID oral (DA 23.1 mg/kg, DB 26.8 mg/kg), day 9): 99.5 % of baseline | Mean normalized body weight (% of baseline), study day 11 ([1]; DIO mice, BID oral (DA 23.1 mg/kg, DB 26.8 mg/kg), day 11): 98.8 % of baseline | Mean normalized body weight (% of baseline), study day 14 ([1]; DIO mice, BID oral (DA 23.1 mg/kg, DB 26.8 mg/kg), day 14): 99.6 % of baseline | Mean normalized body weight (% of baseline), study day 16 ([1]; DIO mice, BID oral (DA 23.1 mg/kg, DB 26.8 mg/kg), day 16): 98.5 % of baseline | Mean normalized body weight (% of baseline), study day 18 ([1]; DIO mice, BID oral (DA 23.1 mg/kg, DB 26.8 mg/kg), day 18): 98.4 % of baseline | Mean normalized body weight (% of baseline), study day 21 ([1]; DIO mice, BID oral (DA 23.1 mg/kg, DB 26.8 mg/kg), day 21): 99.9 % of baseline | Mean normalized body weight (% of baseline), study day 23 ([1]; DIO mice, BID oral (DA 23.1 mg/kg, DB 26.8 mg/kg), day 23): 99.9 % of baseline | Mean normalized body weight (% of baseline), study day 25 ([1]; DIO mice, BID oral (DA 23.1 mg/kg, DB 26.8 mg/kg), day 25): 100.0 % of baseline | Mean normalized body weight (% of baseline), study day 28 ([1]; DIO mice, BID oral (DA 23.1 mg/kg, DB 26.8 mg/kg), day 28): 100.0 % of baseline | Mean normalized body weight (% of baseline), study day 30 ([1]; DIO mice, BID oral (DA 23.1 mg/kg, DB 26.8 mg/kg), day 30): 100.0 % of baseline | Mean normalized body weight (% of baseline), study day 32 ([1]; DIO mice, BID oral (DA 23.1 mg/kg, DB 26.8 mg/kg), day 32): 102.0 % of baseline | Mean normalized body weight (% of baseline), study day 34 ([1]; DIO mice, BID oral (DA 23.1 mg/kg, DB 26.8 mg/kg), day 34): 101.9 % of baseline | Mean normalized body weight (% of baseline), study day 36 ([1]; DIO mice, BID oral (DA 23.1 mg/kg, DB 26.8 mg/kg), day 36): 101.5 % of baseline | Mean normalized body weight (% of baseline), study day 39 ([1]; DIO mice, BID oral (DA 23.1 mg/kg, DB 26.8 mg/kg), day 39): 102.6 % of baseline | Mean normalized body weight (% of baseline), study day 41 ([1]; DIO mice, BID oral (DA 23.1 mg/kg, DB 26.8 mg/kg), day 41): 103.1 % of baseline | Mean normalized body weight (% of baseline), study day 46 ([1]; DIO mice, BID oral (DA 23.1 mg/kg, DB 26.8 mg/kg), day 46): 103.9 % of baseline | Mean normalized body weight (% of baseline), study day 49 ([1]; DIO mice, BID oral (DA 23.1 mg/kg, DB 26.8 mg/kg), day 49): 104.7 % of baseline | Mean normalized body weight (% of baseline), study day 51 ([1]; DIO mice, BID oral (DA 23.1 mg/kg, DB 26.8 mg/kg), day 51): 104.9 % of baseline | Mean normalized body weight (% of baseline), study day 53 ([1]; DIO mice, BID oral (DA 23.1 mg/kg, DB 26.8 mg/kg), day 53): 105.2 % of baseline | Mean normalized body weight (% of baseline), study day 56 ([1]; DIO mice, BID oral (DA 23.1 mg/kg, DB 26.8 mg/kg), day 56): 106.7 % of baseline | food consumption compared to vehicle-dosed mice ([1]; DIO mice, BID oral, 56-day treatment): nominally decreased food consumption compared to vehicle-dosed mice | body weight gain, DA compared with DB ([1]; DIO mice, Day 34 to Day 56): body weight gain was less | food consumption, DA compared with DB ([1]; DIO mice, all indicated measurement days except for Day 42): food consumption was less | body weights at the indicated days (FIG. 1) ([2]; 56 day study, DA 23.1 mg/kg BID PO): lowest average body weights | body weight changes of the 56 day study (FIG. 2) ([2]; DA 23.1 mg/kg BID PO compared with DB 26.8 mg/kg BID): lowest increase in body weight; also recorded: weight loss improvement of higher dose DA over higher dose DB | serum insulin at the end of the 56 day study (FIG. 3) ([2]; DA 23.1 mg/kg BID PO, compared with pre-treatment and vehicle): close to baseline value | Mortality rate ([3]; both, 120 mg/kg, 14 day): 0% | Mortality rate ([3]; both, 360 mg/kg, 14 day): 0% | Mortality rate ([3]; both, 1000 mg/kg, 14 day): 50% | Mortality rate ([3]; both, 2000 mg/kg, 14 day): 100% | Estimated LD50 ([3]; both, 14 day): 945 mg/kg | No. of animals died within 24 h post dosing ([3]; female, 120 mg/kg): 0 | No. of animals died within 24 h post dosing ([3]; female, 360 mg/kg): 0 | No. of animals died within 24 h post dosing ([3]; female, 1000 mg/kg): 3 | No. of animals died within 24 h post dosing ([3]; female, 2000 mg/kg): 3 | No. of animals died within 24 h post dosing ([3]; male, 120 mg/kg): 0 | No. of animals died within 24 h post dosing ([3]; male, 360 mg/kg): 0 | No. of animals died within 24 h post dosing ([3]; male, 1000 mg/kg): 0 | No. of animals died within 24 h post dosing ([3]; male, 2000 mg/kg): 3 | LD50 at 14 day [4]: 945 mg/kg | MTD at 14 day [4]: 360 mg/kg | food intake reduction, DA compared with DB ([5]; 23.1 mg/kg DA vs 26.8 mg/kg DB): a greater food intake reduction | Mean cumulative food intake 0-2 h ([5]; single oral dose (DA 23.1 mg/kg, DB 26.8 mg/kg), 0-2 h, N = 15): 4.7 gram | Mean cumulative food intake 0-4 h ([5]; single oral dose (DA 23.1 mg/kg, DB 26.8 mg/kg), 0-4 h, N = 15): 7.3 gram | Mean cumulative food intake 0-6 h ([5]; single oral dose (DA 23.1 mg/kg, DB 26.8 mg/kg), 0-6 h, N = 15): 10.3 gram | Mean cumulative food intake 0-8 h ([5]; single oral dose (DA 23.1 mg/kg, DB 26.8 mg/kg), 0-8 h, N = 15): 12.5 gram | Mean cumulative food intake 0-24 h ([5]; single oral dose (DA 23.1 mg/kg, DB 26.8 mg/kg), 0-24 h, N = 15): 20.2 gram | cumulative food intake as compared with vehicle ([5]; single oral dose, all indicated time intervals): reduced cumulative food intake during all the indicated time intervals as compared with vehicle | cumulative food consumption over 24 hours (FIG. 5) [6]: largest impact
